Here are results for 28 compounds from patent US8846719B2, “Isoxazolo-pyridine derivatives” (Roche Palo Alto LLC, priority 2007, dated 2014).

The experiment concerns the target human GABA A receptor α5β3γ2 (Homo sapiens (Human), UniProt P18507+P31644). Description: [3H]flumazenil competition binding assay, human GABA A α5β3γ2 receptors expressed in HEK293 cells. The following applies: human receptor; displacement of [3H]flumazenil (0.5 nM); means of two determinations; read-out: hKi GABAAa5. As to the method:
The affinity of compounds at GABA A receptor subtypes was measured by competition for [3H]flumazenil (85 Ci/mmol; Roche) binding to HEK293 cells expressing rat (stably transfected) or human (transiently transfected) receptors of composition α1β3γ2, α2β3γ2, α3β3γ2 and α5β3γ2.
Cell pellets were suspended in Krebs-tris buffer (4.8 mM KCl, 1.2 mM CaCl2, 1.2 mM MgCl2, 120 mM NaCl, 15 mM Tris; pH 7.5; binding assay buffer), homogenized by polytron for ca. 20 sec on ice and centrifuged for 60 min at 4° C. (50000 g; Sorvall, rotor: SM24=20000 rpm). The cell pellets were resuspended in Krebs-tris buffer and homogenized by polytron for ca. 15 sec on ice. Protein was measured (Bradford method, Bio-Rad) and aliquots of 1 mL were prepared and stored at −80° C.
Assays were incubated to equilibrium for 1 hour at 4° C. and harvested onto GF/C uni-filters (Packard) by filtration using a Packard harvester and washing with ice-cold wash buffer (50 mM Tris; pH 7.5). After drying, filter-retained radioactivity was detected by liquid scintillation counting. Ki values were calculated using Excel-Fit (Microsoft) and are the means of two determinations.
A general note: In a radioligand displacement assay an active substance lowers the binding of a labelled ligand.

Molecules are shown by their SMILES.

As for `Cc1onc(-c2ccccc2)c1COc1ccc(C(=O)NC2(C)CC2)cn1` [Example 239, N-(1-Methyl-cyclopropyl)-6-(5-methyl-3-phenyl-isoxazol-4-ylmethoxy)-nicotinamide], the Ki was determined as 0.0036 µM. `Cc1onc(-c2ccc(Cl)cc2)c1COc1ccc(C(=O)NC(C)C)cn1` [Example 119, 6-[3-(4-Chloro-phenyl)-5-methyl-isoxazol-4-ylmethoxy]-N-isopropyl-nicotinamide]: the Ki is 0.0007 µM.

Regarding `Cc1onc(-c2ccc(F)cc2F)c1COc1ccc(C(=O)NC(C)C)cn1` [Example 263, 6-[3-(2,4-Difluoro-phenyl)-5-methyl-isoxazol-4-ylmethoxy]-N-isopropyl-nicotinamide], the Ki amounted to 0.0024 µM.

`Cc1onc(-c2ccccc2)c1COc1ccc(C(=O)N2CCCn3nccc32)cn1` [Example 78, (6,7-Dihydro-5H-pyrazolo[1,5-a]pyrimidin-4-yl)-[6-(5-methyl-3-phenyl-isoxazol-4-ylmethoxy)-pyridin-3-yl]-methanone]: the Ki came to 0.0407 µM.

Regarding `COC(=O)c1ccc(OCc2c(-c3cccnc3)noc2C)nc1` [Example 154, 6-(5-Methyl-3-pyridin-3-yl-isoxazol-4-ylmethoxy)-nicotinic acid methyl ester], the Ki was 0.0532 µM.

With `Cc1onc(-c2ccccn2)c1COc1ccc(C(=O)NCC2CC2)cn1` [Example 277, N-Cyclopropylmethyl-6-(5-methyl-3-pyridin-2-yl-isoxazol-4-ylmethoxy)-nicotinamide], the Ki turned out to be 0.0015 µM. In the case of `CNC(=O)c1ccc(OCc2c(-c3ccc(F)cn3)noc2C)nc1` [Example 298, 6-[3-(5-Fluoro-pyridin-2-yl)-5-methyl-isoxazol-4-ylmethoxy]-methyl-nicotinamide], the Ki turned out to be 0.0006 µM. For the compound `O=C(NCC(F)(F)F)c1ccc(OCc2conc2-c2ccc(Cl)cc2)nc1` [Example 342, 6-[3-(4-Chloro-phenyl)-isoxazol-4-ylmethoxy]-N-(2,2,2-trifluoro-ethyl)-nicotinamide], the Ki was 0.0151 µM. Consider `Cc1cccc(-c2noc(C)c2COc2ccc(C(=O)NC(C)C)cn2)c1` [Example 250, N-Isopropyl-6-(5-methyl-3-m-tolyl-isoxazol-4-ylmethoxy)-nicotinamide], for which the Ki was 0.0031 µM.

For `C[C@@H](CO)NC(=O)c1ccc(OCc2conc2-c2ccc(F)cc2)nc1` [Example 327, 6-[3-(4-Fluoro-phenyl)-isoxazol-4-ylmethoxy]-N—((S)-2-hydroxy-1-methyl-ethyl)-nicotinamide], the Ki was found to be 0.0139 µM. Regarding `Cc1onc(-c2cccc(F)c2)c1COc1ccc(C(=O)NC(C)C)cn1` [Example 91, 6-[3-(3-Fluoro-phenyl)-5-methyl-isoxazol-4-ylmethoxy]-N-isopropyl-nicotinamide], the Ki was 0.0023 µM. Regarding `Cc1onc(-c2cccc(F)c2)c1CNc1ccc(C(=O)NC2CCOCC2)cn1` [Example 171, 6-{[3-(3-Fluoro-phenyl)-5-methyl-isoxazol-4-ylmethyl]-amino}-N-(tetrahydro-pyran-4-yl)-nicotinamide], the Ki is 0.0149 µM. Next, `Cc1onc(-c2ccccc2)c1COc1ccc(C(=O)NC2CCCN(C(=O)OC(C)(C)C)C2)cn1` (stereo not shown) [Example 38, 3-{[6-(5-Methyl-3-phenyl-isoxazol-4-ylmethoxy)-pyridine-3-carbonyl]-amino}-piperidine-1-carboxylic acid tert-butyl ester]: 0.0435 µM; `O=C(NCC1CC1)c1ccc(OCc2c(-c3ccc(F)cc3)noc2C(F)(F)F)nc1` [Example 141, N-Cyclopropylmethyl-6-[3-(4-fluoro-phenyl)-5-trifluoromethyl-isoxazol-4-ylmethoxy]-nicotinamide]: 0.0225 µM. Next, `O=C(NC1CC1)c1ccc(OCc2c(-c3ccc(F)cc3)noc2C(F)(F)F)nc1` [Example 143, N-Cyclopropyl-6-[3-(4-fluoro-phenyl)-5-trifluoromethyl-isoxazol-4-ylmethoxy]-nicotinamide]: 0.0384 µM; `Cc1onc(-c2ccccc2)c1COc1ccc(C(=O)NC[C@@H](C)O)cn1` (racemic) [Example 14, (R,S)—N-(2-Hydroxy-propyl)-6-(5-methyl-3-phenyl-isoxazol-4-ylmethoxy)-nicotinamide]: 0.0025 µM; `Cc1onc(-c2ccccc2)c1COc1ccc(C#N)cn1` [Example 5, 6-(5-Methyl-3-phenyl-isoxazol-4-ylmethoxy)-nicotinonitrile]: 0.0131 µM. On to `Cc1onc(-c2ccccn2)c1COc1ccc(C(=O)O)cn1` [Example 283, 6-(5-Methyl-3-pyridin-2-yl-isoxazol-4-ylmethoxy)-nicotinic acid], for which the Ki was determined as 0.0223 µM.

As to `Cc1onc(-c2ccccc2)c1COc1ccc(C(=O)NCC2CCCOC2)cn1` (stereo not shown) [Example 76, 6-(5-Methyl-3-phenyl-isoxazol-4-ylmethoxy)-N-(tetrahydro-pyran-3-ylmethyl)-nicotinamide], the Ki turned out to be 0.0117 µM. Consider `Cc1onc(-c2ccc(Cl)cn2)c1COc1ccc(C(=O)NCC2CC2)cn1` [Example 306, 6-[3-(5-Chloro-pyridin-2-yl)-5-methyl-isoxazol-4-ylmethoxy]-cyclopropylmethyl-nicotinamide], for which the Ki came to 0.0003 µM. For `COC(=O)c1ccc(OCc2c(-c3ccc(Cl)cn3)noc2C)nc1` [Example 300, 6-[3-(5-Chloro-pyridin-2-yl)-5-methyl-isoxazol-4-ylmethoxy]-nicotinic acid methyl ester], the Ki came out at 0.0016 µM.

Turning to `CC(C)(CO)CNC(=O)c1ccc(OCc2conc2-c2ccc(Cl)cc2)nc1` [Example 350, 6-[3-(4-Chloro-phenyl)-isoxazol-4-ylmethoxy]-N-(3-hydroxy-2,2-dimethyl-propyl)-nicotinamide], the Ki amounted to 0.0229 µM. As to `Cc1onc(-c2ccc(Cl)cc2)c1COc1ccc(C(=O)NCC2CC2)cn1` [Example 118, 6-[3-(4-Chloro-phenyl)-5-methyl-isoxazol-4-ylmethoxy]-N-cyclopropylmethyl-nicotinamide], the Ki came to 0.0013 µM. To `Cc1onc(-c2ccccc2)c1COc1ccc(C(=O)N[C@@H]2CCCC[C@@H]2O)cn1` (single isomer, unassigned) [Example 203, N-((1R,2S)-2-Hydroxy-cyclohexyl)-6-(5-methyl-3-phenyl-isoxazol-4-ylmethoxy)-nicotinamide or N-((1S,2R)-2-Hydroxy-cyclohexyl)-6-(5-methyl-3-phenyl-isoxazol-4-ylmethoxy)-nicotinamide] belongs 0.0048 µM; to `CCNC(=O)c1ccc(OCc2conc2-c2ccccn2)nc1` [Example 364, N-Ethyl-6-(3-pyridin-2-yl-isoxazol-4-ylmethoxy)-nicotinamide], 0.0136 µM; to `COC(=O)c1ccc(OCc2c(-c3ccccc3)noc2C(F)(F)F)nc1` [Example 128, 6-(3-Phenyl-5-trifluoromethyl-isoxazol-4-ylmethoxy)-nicotinic acid methyl ester], 0.0885 µM. With `Cc1onc(-c2cccc(Cl)c2)c1COc1ccc(C(=O)N2CCS(=O)(=O)CC2)cn1` [Example 102, {6-[3-(3-Chloro-phenyl)-5-methyl-isoxazol-4-ylmethoxy]-pyridin-3-yl}-(1,1-dioxo-1λ6-thiomorpholin-4-yl)-methanone], the Ki was 0.0195 µM. As to `Cc1onc(-c2ccc(F)cc2)c1CNc1ccc(C(=O)NC2CC2)cn1` [Example 176, N-Cyclopropyl-6-{[3-(4-fluoro-phenyl)-5-methyl-isoxazol-4-ylmethyl]-amino}-nicotinamide], the Ki was 0.0074 µM.
